# Laboratory results published in ChEMBL document CHEMBL1143226, “Potent inhibitors of the hedgehog signaling pathway” (J Med Chem, 2008).
# Test: Antagonist activity at Hedgehog receptor expressed in 10t1/2 cells by Gli-luciferase reporter gene assay
# Type: functional, cell-based
row,SMILES,IC50 [µM]
1,CC(NC(=O)Nc1cccc(C(F)(F)F)c1)c1nc2ccccc2c(=O)n1-c1ccc(F)cc1 (stereo not given),4.7
2,CC(C)n1c(CNC(=O)Nc2cccc(C(F)(F)F)c2)nc2ccccc2c1=O,4.3
3,CCc1nc2ccccc2c(=O)n1-c1ccc(F)cc1,> 10
4,O=C(NCc1nc2ccccc2c(=O)n1-c1ccc(F)cc1)Nc1ccc(Cl)c(C(F)(F)F)c1,0.07
5,O=C(NCc1nc2ccccc2c(=O)n1-c1ccc(F)cc1)Nc1cccc(C(F)(F)F)c1,0.7
6,COc1cc(NC(=O)NCc2nc3ccccc3c(=O)n2-c2ccc(F)cc2)cc(C(F)(F)F)c1,0.25
7,CN(Cc1nc2ccccc2c(=O)[nH]1)C(=O)Nc1cccc(C(F)(F)F)c1,> 10
8,CC(c1nc2ccccc2c(=O)n1-c1ccc(F)cc1)N(C)C(=O)Nc1cccc(C(F)(F)F)c1 (stereo not given),1.4
9,O=C(NCc1nc2ccccc2c(=O)n1-c1ccc(F)cc1)Nc1cc(Cl)nc(Cl)c1,0.11
10,CNC(C)c1nc2ccccc2c(=O)n1-c1ccc(F)cc1 (stereo not given),> 10
